In ChEMBL document CHEMBL5523725, “Fragment-Based Anti-inflammatory Agent Design and Target Identification: Discovery of AF-45 as an IRAK4 Inhibitor to Treat Ulcerative Colitis and Acute Lung Injury” (J Med Chem, 2024):
Active and inactive are the calls of the source. The rule behind the calls is not given here.

Assays:
[1] = tested on: RAW264.7; experiment: Inhibition of NFkappaB/MAPK signaling pathway in mouse RAW264.7 cells assessed as reduction in LPS-induced IkappaBalpha degradation at 50 uM by Western blot analysis; format: cell-based
[2] = tested on: Tyrosine-protein kinase ABL1 (Homo sapiens), P00519 [T315I]; experiment: Inhibition of human ABL […] mutant assessed as residual activity at 10 uM by Eurofins kinase profiler method relative to control
[3] = tested on: RAW264.7; experiment: Antiinflammatory activity in LPS-induced mouse RAW264.7 cells assessed as inhibition of TNF-alpha mRNA transcription pretreated for 2 hrs followed by LPS stimulation and measured after 6 hrs by RT-qPCR analysis; format: functional, cell-based; settings: dose 5-10 µM, time 8.0 hrs
[4] = tested on: RAW264.7; experiment: Inhibition of NFkappaB/MAPK signaling pathway in mouse RAW264.7 cells assessed as reduction in LPS-induced p38 phosphorylation at 50 uM by Western blot analysis; format: cell-based
[5] = molecular target: T1, Interleukin-1 receptor-associated kinase 1 (Homo sapiens, UniProt P51617); experiment: Inhibition of IRAK1 (unknown origin) at 10 uM relative to control
Target sequence in this assay (P51617 whole entry, looked up): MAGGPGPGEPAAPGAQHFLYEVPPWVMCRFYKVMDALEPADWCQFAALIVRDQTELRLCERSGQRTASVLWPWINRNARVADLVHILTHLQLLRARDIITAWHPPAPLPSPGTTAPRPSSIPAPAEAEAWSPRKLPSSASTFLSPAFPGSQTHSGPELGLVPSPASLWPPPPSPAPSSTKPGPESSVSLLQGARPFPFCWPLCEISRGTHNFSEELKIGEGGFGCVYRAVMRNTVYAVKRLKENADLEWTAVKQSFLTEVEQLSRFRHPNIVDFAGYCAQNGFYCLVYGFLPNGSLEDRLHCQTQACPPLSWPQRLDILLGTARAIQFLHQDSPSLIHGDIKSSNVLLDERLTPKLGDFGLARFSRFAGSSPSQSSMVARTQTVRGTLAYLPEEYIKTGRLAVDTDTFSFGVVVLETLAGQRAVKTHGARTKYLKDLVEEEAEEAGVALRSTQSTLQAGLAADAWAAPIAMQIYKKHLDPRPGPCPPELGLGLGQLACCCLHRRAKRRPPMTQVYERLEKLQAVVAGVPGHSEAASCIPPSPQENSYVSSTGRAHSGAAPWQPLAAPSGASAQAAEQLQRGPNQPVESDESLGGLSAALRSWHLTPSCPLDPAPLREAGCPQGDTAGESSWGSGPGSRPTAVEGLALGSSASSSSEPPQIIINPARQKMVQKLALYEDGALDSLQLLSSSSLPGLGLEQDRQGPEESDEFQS

[6] = tested on: Mus musculus; experiment: Antiinflammatory activity in LPS induced C57BL/6 mouse model of acute lung injury assessed as reduction in number of macrophages in spleen at 20 to 40 mg/kg, ip preadministered for 30 mins followed by LPS administration and measured after 6 hrs by F4/80 labeling based immunohistochemical analysis; format: functional, organism-based; settings: dose 20-40 mg/kg, time 6.5 hrs
[7] = molecular target: Aurora kinase B (Homo sapiens) (UniProt Q96GD4); experiment: Inhibition of human AurB assessed as residual activity at 10 uM by Eurofins kinase profiler method relative to control
Sequence of Aurora kinase B (Homo sapiens) (Q96GD4 whole entry, the tested form may be a part): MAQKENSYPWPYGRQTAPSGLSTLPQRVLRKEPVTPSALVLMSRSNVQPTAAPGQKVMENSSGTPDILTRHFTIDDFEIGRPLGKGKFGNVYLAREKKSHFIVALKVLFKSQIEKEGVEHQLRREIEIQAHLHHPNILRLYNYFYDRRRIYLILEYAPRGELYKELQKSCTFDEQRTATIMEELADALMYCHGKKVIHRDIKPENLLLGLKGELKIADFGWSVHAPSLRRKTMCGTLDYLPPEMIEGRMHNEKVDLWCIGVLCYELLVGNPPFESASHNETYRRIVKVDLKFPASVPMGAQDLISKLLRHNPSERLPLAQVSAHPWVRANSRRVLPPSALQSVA

[8] = tested on: Mus musculus; experiment: Antiinflammatory activity in LPS induced C57BL/6 mouse model of acute lung injury assessed as reduction in white pulp fusion at 20 to 40 mg/kg, ip preadministered for 30 mins followed by LPS administration and measured after 6 hrs by H and E staining based analysis; format: functional, organism-based; settings: dose 20-40 mg/kg, time 6.5 hrs
[9] = tested on: Mus musculus; experiment: Antiinflammatory activity in LPS induced C57BL/6 mouse model of acute lung injury assessed as inhibition of TNFalpha release in serum at 20 to 40 mg/kg, ip preadministered for 30 mins followed by LPS administration and measured after 6 hrs by ELISA; format: functional, organism-based; settings: dose 20-40 mg/kg, time 6.5 hrs
[10] = tested on: Mus musculus; experiment: Antiinflammatory activity in LPS induced C57BL/6 mouse model of acute lung injury assessed as reduction in alveolar wall thickening at 20 mg/kg, ip preadministered for 30 mins followed by LPS administration and measured after 6 hrs by H and E staining based analysis; format: functional, organism-based; settings: time 6.5 hrs
[11] = Cytotoxicity against mouse RAW264.7 cells assessed as cell viability by MTT assay; format: toxicity, cell-based; design: concentration or dose not given beside the values; settings: read-out: Activity
[12] = Stability of compound in enzyme free simulated intestinal fluid at 10 mg/ml incubated for 8 hrs and measured every 2 hrs hy HPLC analysis; format: ADME; settings: simulated gi fluid
[13] = tested on: Mus musculus; experiment: Anti-colitis activity in male C57BL/6 mouse model of DSS-induced ulcerative colitis assessed as colon length at 10 mg/kg, po administered for 11 days with subsequent administration of DSS for 8 days (reference value: 5.2 cm); format: functional; settings: time 11 day
[14] = tested on: RAW264.7; experiment: Inhibition of NFkappaB signaling pathway in LPS-induced mouse RAW264.7 cells assessed as inhibition of IkappaBalpha degradation by Western blot analysis; format: cell-based; settings: dose 2.5-10 µM
[15] = tested on: Mus musculus; experiment: Antiinflammatory activity in male C57BL/6 mouse model of DSS-induced ulcerative colitis assessed as preservation of goblet cells at 10 to 20 mg/kg, po administered for 11 days with subsequent administration of DSS for 8 days by H and E staining based analysis; format: functional, organism-based; settings: dose 10-20 mg/kg, time 11.0 day
[16] = tested on: Mus musculus; experiment: Antiinflammatory activity in male C57BL/6 mouse model of DSS-induced ulcerative colitis assessed as reduction in spleen to body weight ratio at 10 to 20 mg/kg, po administered for 11 days with subsequent administration of DSS for 8 days; format: functional, organism-based; settings: dose 10-20 mg/kg, time 11.0 day
[17] = AUC (0 to t) in male Sprague-Dawley rat at 1 mg/kg, iv administered via tail vein and measured upto 24 hrs; format: ADME, organism-based; settings: in vivo
[18] = tested on: RAW264.7; experiment: Inhibition of NFkappaB signaling pathway in LPS-induced mouse RAW264.7 cells assessed as inhibition of p65 entry into nucleus pretreated for 2 hrs followed by LPS stimulation and measured after 15 mins by immunofluorescence staining based analysis; format: cell-based; settings: time 135.0 min
[19] = tested on: THP-1; experiment: cells; settings: Homo sapiens
Description: Antiinflammatory activity in LPS-induced human THP-1 cells assessed as inhibition of IL-6 release pretreated for 30 mins followed by LPS stimulation and measured after 24 hrs by ELISA

[20] = tested on: Mus musculus; experiment: Antiinflammatory activity in LPS induced C57BL/6 mouse model of acute lung injury assessed as inhibition of TNFalpha release in BALF at 20 to 40 mg/kg, ip preadministered for 30 mins followed by LPS administration and measured after 6 hrs by ELISA; format: functional, organism-based; settings: dose 20-40 mg/kg, time 6.5 hrs
[21] = Tmax in male Sprague-Dawley rat at 1 mg/kg, iv administered via tail vein and measured upto 24 hrs; format: ADME, organism-based; settings: in vivo
[22] = tested on: Mus musculus; experiment: Antiinflammatory activity in LPS induced C57BL/6 mouse model of acute lung injury assessed as reduction in macrophage infiltration in lung at 20 to 40 mg/kg, ip preadministered for 30 mins followed by LPS administration and measured after 6 hrs by F4/80 labeling based immunohistochemical analysis; format: functional, organism-based; settings: dose 20-40 mg/kg, time 6.5 hrs
[23] = tested on: RAW264.7; experiment: cells; settings: Mus musculus
Description: Antiinflammatory activity in LPS-induced mouse RAW264.7 cells assessed as inhibition of TNF-alpha release pretreated for 30 mins followed by LPS stimulation and measured after 24 hrs by ELISA

[24] = tested on: J774.A1; experiment: cells; settings: Mus musculus
Description: Antiinflammatory activity in LPS-induced mouse J774.A1 cells assessed as inhibition of TNF-alpha release pretreated for 30 mins followed by LPS stimulation and measured after 24 hrs by ELISA

[25] = molecular target: T1, Interleukin-1 receptor-associated kinase 1; experiment: Inhibition of IRAK1 (unknown origin)
Target sequence in this assay (P51617 whole entry): as the sequence (P51617 whole entry, looked up) above

[26] = Clearance in male Sprague-Dawley rat at 10 mg/kg, po measured upto 24 hrs; format: ADME, organism-based; settings: in vivo
[27] = Stability of compound in simulated gastric fluid at 10 mg/ml incubated for 8 hrs and measured every 2 hrs hy HPLC analysis; format: ADME; settings: simulated gi fluid
[28] = tested on: Mus musculus; experiment: Anti-colitis activity in male C57BL/6 mouse model of DSS-induced ulcerative colitis assessed as colon length at 20 mg/kg, po administered for 11 days with subsequent administration of DSS for 8 days (reference value: 5.2 cm); format: functional; settings: time 11 day
[29] = molecular target: T2, Lymphocyte antigen 96 (Mus musculus) (UniProt Q9JHF9); experiment: Thermal stabilization of MD2 in mouse RAW264.7 cells assessed as reduction in decomposition at 10 uM at 45 to 51 degreeC measured after 4 hrs by CETSA; format: cell-based
T2 sequence (whole entry): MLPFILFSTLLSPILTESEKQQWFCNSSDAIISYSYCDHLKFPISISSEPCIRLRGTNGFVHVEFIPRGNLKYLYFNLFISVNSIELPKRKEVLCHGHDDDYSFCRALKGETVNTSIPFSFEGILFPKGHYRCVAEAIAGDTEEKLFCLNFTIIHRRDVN

[30] = Tmax in male Sprague-Dawley rat at 10 mg/kg, po measured upto 24 hrs; format: ADME, organism-based; settings: in vivo
[31] = tested on: RAW264.7; experiment: Inhibition of NFkappaB/MAPK signaling pathway in mouse RAW264.7 cells assessed as reduction in LPS-induced JNK phosphorylation at 50 uM by Western blot analysis; format: cell-based
[32] = Stability of compound in simulated intestinal fluid at 10 mg/ml incubated for 8 hrs and measured every 2 hrs hy HPLC analysis; format: ADME; settings: simulated gi fluid

SMILES: COc1cc2c(O[C@H]3CC[C@@H](N)CC3)ncnc2cc1OCc1ccccc1
- inhibition [1]: Active
- Activity [2]: 70%
- Activity [3]: Dose-Dependent Effect
- inhibition [4]: Active
- inhibition [5]: 87%
- Activity [6]: Active
- Activity [7]: 70%
- Activity [8]: Active
- Activity [9]: Active
- Activity [10]: Active
- viability [11]: 98.2%
- Stability [12]: Stable
- Activity [13]: 5.9 cm
- inhibition [14]: Dose-Dependent Effect
- Activity [15]: Active
- Activity [16]: Active
- AUC(0-t) at 24 h [17]: 3800 ng·h/mL
- inhibition [18]: Active
- IC50 [19]: 530 nM
- Activity [20]: Active
- Tmax [21]: 4.8 min
- Activity [22]: Active
- IC50 [23]: 2600 nM
- IC50 [24]: 2750 nM
- IC50 [25]: 1770 nM
- CL [26]: 1.48 mL/min/kg
- Stability [27]: Stable
- Activity [28]: 6.2 cm
- Activity [29]: inactive
- Tmax [30]: 3 h
- inhibition [31]: Active
- Stability [32]: Stable
